Measured values taken from patent US9695155B2, “Herbicidal substituted pyrimidinyloxy benzene compounds” (E. I. DU PONT DE NEMOURS AND COMPANY, priority 2013, dated 2017).

Legend:
velvetleaf = assay: Test A postemergence; format: in vivo, Abutilon theophrasti; details: for pest or weed control at 500 g/ha: read-out: Plant response rating Velvetleaf
How it was run: (§1)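 Greenhouse pot test, loam/sand soil. Formulation: non-phytotoxic solvent mix plus surfactant. Pre: directed spray onto soil after sowing. Post: plants at 1–2 leaf, 2–10 cm. Rated visually vs untreated controls at ~10 d, 0 (no effect) to 100 (complete control).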

giant foxtail [1] = assay: Test A preemergence; format: in vivo, Setaria faberii; details: for pest or weed control at 125 g/ha / pest or weed control at 500 g/ha: Setaria faberi, pre-emergence, 240 h
How it was run: as §1

pigweed [2] = assay: Test A preemergence; format: in vivo, Amaranthus retroflexus; details: for pest or weed control at 125 g/ha / pest or weed control at 500 g/ha: Amaranthus retroflexus, pre-emergence
How it was run: as §1

rice = assay: Test B flooded paddy test; format: in vivo, Oryza sativa; details: Flood, 250 g ai/ha, 0 to 100 scale where 0 is no effect and 100 is complete control; for plant injury at 250 g/ha: Oryza sativa, read-out: Plant response rating, Rice
How it was run: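 Scores from 0 (no effect) to 100 (complete control) are visual comparisons with controls, taken 13 to 15 days after compound was applied into floodwater 3 cm deep around 2-leaf plants.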

yellow nutsedge = assay: Test C preemergence; format: in vivo, Cyperus esculentus; details: Cyperus, pre-emergence
Description: (§2) Seeds of plant species selected from blackgrass (Alopecurus myosuroides), Italian ryegrass (Lolium multiflorum), wheat, winter (winter wheat, Triticum aestivum), galium (catchweed bedstraw, Galium aparine), corn (Zea mays), large (Lg) crabgrass (Digitaria sanguinalis), giant foxtail (Setaria faberii), johnsongrass (Sorghum halepense), lambsquarters (Chenopodium album), morningglory (Ipomoea coccinea), yellow nutsedge (Cyperus esculentus), pigweed (Amaranthus retroflexus), ragweed (common ragweed, Ambrosia elatior), soybean (Glycine max), barnyardgrass (Echinochloa crus-galli), oilseed rape (Brassica napus), waterhemp (common waterhemp, Amaranthus rudis), kochia (Kochia scoparia), wild oat (Avena fatua), surinam grass (Brachiaria decumbens), foxtail, green (green foxtail, Setaria viridis), goosegrass (Eleusine indica), bromegrass, downy (downy bromegrass, Bromus tectorum), nightshade (eastern black nightshade, Solanum ptycanthum), cocklebur (common cocklebur, Xanthium strumarium), cupgrass, woolly (woolly cupgrass, Eriochloa villosa), bermudagrass (Cynodon dactylon), sunflower, (common oilseed sunflower, Helianthus annuus), Russian thistle (Salsola kali), and velvetleaf (Abutilon theophrasti) were planted into a blend of loam soil and sand and treated preemergence with test chemicals formulated in a non-phytotoxic solvent mixture which included a surfactant.
(§3) At the same time, plants selected from these crop and weed species and also barley, winter (winter barley, Hordeum vulgare), windgrass (Apera spica-venti), chickweed (common chickweed, Stellaria media), deadnettle (henbit deadnettle, Lamium amplexicaule), and canarygrass (littleseed canarygrass, Phalaris minor) were planted in pots containing Redi-Earth® planting medium (Scotts Company, 14111 Scottslawn Road, Marysville, Ohio 43041) comprising spaghnum peat moss, vermiculite, wetting agent and starter nutrients and treated with postemergence applications of test chemicals formulated in the same manner. Plants ranged in height from 2 to 18 cm (1- to 4-leaf stage) for postemergence treatments. Treated plants and controls were maintained in a greenhouse for 13 to 15 days, after which time all species were compared to controls and visually evaluated. Plant response ratings, summarized in Table C, are based on a scale of 0 to 100 where 0 is no effect and 100 is complete control. A dash (-) response means no test result.

pigweed [3] = assay: Test C preemergence; format: in vivo, Amaranthus retroflexus; details: Amaranthus retroflexus, pre-emergence
Description: as §2, §3

giant foxtail [4] = assay: Test C preemergence; format: in vivo, Setaria faberii; details: Setaria faberi, pre-emergence
Description: as §2, §3

[5] = Abutilon theophrasti, post-emergence, 240 h, 500 g ai/ha, 0 to 100 scale, 0 no effect, 100 complete control
[6] = 500 g ai/ha, 0 to 100 scale, 0 no effect, 100 complete control, approx. 10 days, read-out: Foxtail, Giant plant response rating
[7] = 240 h, 500 g ai/ha, 0 to 100 scale, 0 no effect, 100 complete control, approx. 10 days, read-out: Pigweed plant response rating
[8] = 125 g ai/ha, 0 to 100 scale where 0 is no effect and 100 is complete control
[9] = 500 g ai/ha, 0 to 100 scale, 0 no effect, 100 complete control, approx. 10 days

FC(F)(F)c1ccn(-c2ccccc2Oc2ncc(Cl)cn2)n1 [Compound 2, 5-chloro-2-[2-[3-(trifluoromethyl)-1H-pyrazol-1-yl]phenoxy]pyrimidine]
pest or weed control at 500 g/ha (velvetleaf; [5]): 60%
pest or weed control at 125 g/ha (giant foxtail [1]; 125 g ai/ha, 0 to 100 scale where 0 is no effect and 100 is complete control, read-out: Foxtail, Giant plant response rating): 80%
pest or weed control at 500 g/ha (giant foxtail [1]; [6]): 100%
pest or weed control at 125 g/ha (pigweed [2]; 240 h, 125 g ai/ha, 0 to 100 scale where 0 is no effect and 100 is complete control, read-out: Pigweed plant response rating): 90%
pest or weed control at 500 g/ha (pigweed [2]; [7]): 100%
plant injury at 250 g/ha (rice): 0%

Clc1cnc(Oc2ccccc2-n2cc(Cl)cn2)nc1 [Compound 3]
Plant response rating, Velvetleaf (velvetleaf; [8]): 100
Plant response rating, Velvetleaf (velvetleaf; 500 g ai/ha, 0 to 100 scale, 0 no effect, 100 complete control): 100
Foxtail, Giant plant response rating (giant foxtail [1]; [8]): 90
Foxtail, Giant plant response rating (giant foxtail [1]; [9]): 100
Pigweed plant response rating (pigweed [2]; [8]): 90
Pigweed plant response rating (pigweed [2]; [9]): 100
Plant response rating, Rice (rice): 0

FC(F)(F)c1cnn(-c2ccccc2Oc2ncc(Br)cn2)c1 [Compound 18, 5-bromo-2-[2-[4-(trifluoromethyl)-1H-pyrazol-1-yl]phenoxy]pyrimidine]
pest or weed control at 62 g/ha (yellow nutsedge; 62 g ai/ha, preemergence, scale 0 (no effect) to 100 (complete control), read-out: Nutsedge, Yellow plant response rating): 15%
pest or weed control at 125 g/ha (yellow nutsedge; 125 g ai/ha, preemergence, scale 0 (no effect) to 100 (complete control), read-out: Nutsedge, Yellow plant response rating): 25%
pest or weed control at 250 g/ha (yellow nutsedge; 250 g ai/ha, preemergence, scale 0 (no effect) to 100 (complete control), read-out: Nutsedge, Yellow plant response rating): 35%
pest or weed control at 31 g/ha (yellow nutsedge; Preemergence, 31 g ai/ha, scale 0 to 100, 0 no effect, 100 complete control, read-out: Plant response rating, Nutsedge, Yellow): 10%
pest or weed control at 125 g/ha (velvetleaf; Abutilon theophrasti, post-emergence, 240 h, 125 g ai/ha, 0 to 100 scale where 0 is no effect and 100 is complete control, read-out: Plant response rating, Velvetleaf): 100%
pest or weed control at 500 g/ha (velvetleaf; [5]): 100%
pest or weed control at 62 g/ha (pigweed [3]; 62 g ai/ha, preemergence, scale 0 (no effect) to 100 (complete control), read-out: Pigweed plant response rating): 100%
pest or weed control at 125 g/ha (pigweed [3]; 125 g ai/ha, preemergence, scale 0 (no effect) to 100 (complete control), read-out: Pigweed plant response rating): 100%
pest or weed control at 250 g/ha (pigweed [3]; 250 g ai/ha, preemergence, scale 0 (no effect) to 100 (complete control), read-out: Pigweed plant response rating): 100%
pest or weed control at 31 g/ha (pigweed [3]; Preemergence, 31 g ai/ha, scale 0 to 100, 0 no effect, 100 complete control, read-out: Plant response rating, Pigweed): 100%
pest or weed control at 125 g/ha (giant foxtail [1]; 125 g ai/ha, 0 to 100 scale where 0 is no effect and 100 is complete control, read-out: Plant response rating, Foxtail, Giant): 100%
pest or weed control at 500 g/ha (giant foxtail [1]; [6]): 100%
pest or weed control at 125 g/ha (pigweed [2]; 125 g ai/ha, 0 to 100 scale where 0 is no effect and 100 is complete control, read-out: Plant response rating, Pigweed): 100%
pest or weed control at 500 g/ha (pigweed [2]; [7]): 100%
pest or weed control at 62 g/ha (giant foxtail [4]; 62 g ai/ha, preemergence, scale 0 (no effect) to 100 (complete control), read-out: Foxtail, Giant plant response rating): 100%
pest or weed control at 125 g/ha (giant foxtail [4]; 125 g ai/ha, preemergence, scale 0 (no effect) to 100 (complete control), read-out: Foxtail, Giant plant response rating): 100%
pest or weed control at 250 g/ha (giant foxtail [4]; 250 g ai/ha, preemergence, scale 0 (no effect) to 100 (complete control), read-out: Foxtail, Giant plant response rating): 100%
pest or weed control at 31 g/ha (giant foxtail [4]; Preemergence, 31 g ai/ha, scale 0 to 100, 0 no effect, 100 complete control, read-out: Plant response rating, Foxtail, Giant): 65%
plant injury at 250 g/ha (rice): 0%
